Laboratory results: patent US10273236B2, “Macrocyclic factor XIa inhibitors bearing heterocyclic groups” (Bristol-Myers Squibb Company, priority 2014, dated 2019)
Where a name gives a salt, the structure may show the parent alone.

Columns and labels:
[1] = target: T1, purified human plasma kallikrein (Homo sapiens, UniProt P03952); assay: Plasma kallikrein inhibition assay, chromogenic substrate S-2302 (Ki); type: biochemical
T1 construct: Plasma prekallikrein is a zymogen of a trypsin-like serine protease; purchased Enzyme Research Laboratories
Outline: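 Purified human plasma kallikrein (200 pM final) with chromogenic substrate S-2302 at 0.00008-0.0004 M in 0.1 M sodium phosphate pH 7.5, 0.1-0.2 M NaCl, 0.5% PEG 8000. Velocities measured over 20-180 min with and without inhibitor; Ki derived assuming competitive inhibition, e.g. Ki=IC50/(1+S/Km).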

[2] = target: T2, purified human Factor XIa (Homo sapiens, UniProt P03951); assay: Factor XIa inhibition assay, chromogenic substrate S-2366 (Ki); type: biochemical
T2 construct: purchased Haematologic Technologies
Outline: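 Purified human FXIa (25-200 pM final) with S-2366 (0.0002-0.001 M) in 50 mM HEPES pH 7.4, 145 mM NaCl, 5 mM KCl, 0.1% PEG 8000. Velocities of absorbance change measured over 20-180 min with inhibitor present; Ki calculated for competitive inhibition from rates or IC50 via Ki=IC50/(1+S/Km).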

T2 sequence (P03951 388-625 limits assumed): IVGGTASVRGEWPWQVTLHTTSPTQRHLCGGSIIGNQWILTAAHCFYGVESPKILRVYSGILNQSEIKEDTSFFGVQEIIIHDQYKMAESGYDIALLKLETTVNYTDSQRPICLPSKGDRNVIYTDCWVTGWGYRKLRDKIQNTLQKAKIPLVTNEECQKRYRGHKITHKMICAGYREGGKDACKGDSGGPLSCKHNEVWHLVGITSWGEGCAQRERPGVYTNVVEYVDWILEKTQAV
T2 sequence (P03951 19-387 partner limits assumed): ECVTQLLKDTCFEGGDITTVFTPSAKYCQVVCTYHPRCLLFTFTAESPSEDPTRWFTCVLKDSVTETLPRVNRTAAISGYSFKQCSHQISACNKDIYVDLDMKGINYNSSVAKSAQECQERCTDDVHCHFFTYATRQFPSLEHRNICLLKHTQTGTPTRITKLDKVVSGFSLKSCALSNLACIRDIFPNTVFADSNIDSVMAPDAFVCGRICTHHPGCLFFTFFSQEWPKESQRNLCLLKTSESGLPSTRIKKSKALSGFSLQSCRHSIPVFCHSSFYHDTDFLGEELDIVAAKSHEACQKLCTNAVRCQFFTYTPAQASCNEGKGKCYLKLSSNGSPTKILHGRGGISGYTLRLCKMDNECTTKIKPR
T1 sequence (P03952 391-638 limits assumed): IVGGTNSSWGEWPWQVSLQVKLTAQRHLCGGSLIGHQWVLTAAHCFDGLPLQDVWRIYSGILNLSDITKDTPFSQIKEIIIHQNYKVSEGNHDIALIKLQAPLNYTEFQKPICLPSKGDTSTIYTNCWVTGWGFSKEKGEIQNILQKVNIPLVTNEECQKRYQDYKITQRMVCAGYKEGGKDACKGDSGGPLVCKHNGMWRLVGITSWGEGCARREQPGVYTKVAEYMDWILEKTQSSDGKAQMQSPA
T1 sequence (P03952 20-390 partner limits assumed): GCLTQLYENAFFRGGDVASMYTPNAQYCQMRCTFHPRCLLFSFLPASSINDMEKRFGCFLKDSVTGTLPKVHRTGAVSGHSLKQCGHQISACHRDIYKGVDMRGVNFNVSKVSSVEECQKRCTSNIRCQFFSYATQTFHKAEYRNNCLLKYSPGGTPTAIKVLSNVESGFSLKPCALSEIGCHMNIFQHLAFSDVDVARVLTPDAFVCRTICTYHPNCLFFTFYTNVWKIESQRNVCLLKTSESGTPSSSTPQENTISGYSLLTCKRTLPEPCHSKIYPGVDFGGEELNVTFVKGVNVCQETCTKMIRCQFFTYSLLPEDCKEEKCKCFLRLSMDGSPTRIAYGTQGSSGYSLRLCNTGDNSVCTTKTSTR

## [2H]C([2H])([2H])n1ncc2c1-c1ccnc(c1)[C@@H](N1CCC(c3c(C(F)F)ccc(Cl)c3F)=CC1=O)CCC[C@@H](C)C(=O)N2 [Example 29, (9R,13S)-13-{4-[3-chloro-6-(difluoromethyl)-2-fluorophenyl]-6-oxo-1,2,3,6-tetrahydropyridin-1-yl}-3-(^2H3)methyl-9-methyl-3,4,7,15-tetraazatricyclo[12.3.1.0^2,6]octadeca-1(18),2(6),4,14,16-pentaen-8-one]
[1]
  Ki: 6 nM
[2]
  Ki: 0.6 nM

## C[C@@H]1CCC[C@H](n2ncc(-c3cc(Cl)ccc3-n3cc(C(F)(F)F)nn3)cc2=O)c2cc(ccn2)-c2c(cnn2C)NC1=O [Example 61, (9R,13S)-13-(4-{5-chloro-2-[4-(trifluoromethyl)-1H-1,2,3-triazol-1-yl]phenyl}-6-oxo-1,6-dihydropyridazin-1-yl)-3,9-dimethyl-3,4,7,15-tetraazatricyclo[12.3.1.02,6]octadeca-1(18),2(6),4,14,16-pentaen-8-one trifluoroacetate]
[1]
  Ki: 66 nM
[2]
  Ki: 0.51 nM

## C[C@H]1C(=O)Nc2cnn(C)c2-c2ccnc(c2)[C@@H](N2CCC(c3cc(Cl)ccc3-n3cc(Cl)nn3)=CC2=O)CCC1F (single isomer, unassigned; isomer b) [Example 15]
[1]
  Ki: 450 nM
[2]
  Ki: 19 nM

## C[C@@H]1CCC[C@H](N2CCC(c3c(C(F)(F)F)ccc(Cl)c3F)=CC2=O)c2cccc(c2)-c2c(cnn2C)NC1=O [Example 49, (9R,13S)-13-{4-[3-chloro-2-fluoro-6-(trifluoromethyl)phenyl]-6-oxo-1,2,3,6-tetrahydropyridin-1-yl}-3,9-dimethyl-3,4,7-triazatricyclo[12.3.1.0^2,6]octadeca-1(18),2(6),4,14,16-pentaen-8-one]
[1]
  Ki: 69 nM
[2]
  Ki: 3.2 nM

## [2H]C([2H])([2H])n1ncc2c1-c1ccnc(c1)[C@@H](n1ncc(-c3cc(Cl)ccc3-n3cc(C(F)(F)F)nn3)cc1=O)CCC[C@@H](C)C(=O)N2 [Example 63, (9R,13S)-13-(4-{5-Chloro-2-[4-(trifluoromethyl)-1H-1,2,3-triazol-1-yl]phenyl}-6-oxo-1,6-dihydropyridazin-1-yl)-3-(^2H3)methyl-9-methyl-3,4,7,15-tetraazatricyclo[12.3.1.0^2,6]octadeca-1(18),2(6),4,14,16-pentaen-8-one trifluoroacetate]
[1]
  Ki: 77 nM
[2]
  Ki: 0.52 nM

## C[C@@H]1CCC[C@H](N2CCC(c3cc(Cl)ccc3-n3ccnn3)=CC2=O)c2cc(ccn2)-c2c(cnn2CCO)NC1=O (stereo in doubt) [Example 11, 13-{4-[5-chloro-2-(1H-1,2,3-triazol-1-yl)phenyl]-6-oxo-1,2,3,6-tetrahydropyridin-1-yl}-3-(2-hydroxyethyl)-9-methyl-3,4,7,15-tetraazatricyclo[12.3.1.0^2,6]octadeca-1(18),2(6),4,14,16-pentaen-8-one]
[1]
  Ki: 140 nM
[2]
  Ki: 5.5 nM

## C[C@@H]1CCC[C@H](N2CCC(c3cc(Cl)ccc3-n3cc(C(F)(F)F)nn3)=CC2=O)c2cc(ccn2)-c2c(cnn2C)NC1=O [Example 40, (9R,13S)-13-(4-{5-chloro-2-[4-(trifluoromethyl)-1H-1,2,3-triazol-1-yl]phenyl}-6-oxo-1,2,3,6-tetrahydropyridin-1-yl)-3,9-dimethyl-3,4,7,15-tetraazatricyclo[12.3.1.0^2,6]octadeca-1(18),2(6),4,14,16-pentaen-8-one]
[1]
  Ki: 6 nM
[2]
  Ki: 0.1 nM

## C[C@@H]1CCC[C@H](N2CCC(c3cc(Cl)ccc3-n3cc(Cl)nn3)=CC2=O)c2cc(ccn2)-c2c(cnn2C)NC1=O [Example 3, (9R,13S)-13-{4-[5-chloro-2-(4-chloro-1H-1,2,3-triazol-1-yl)phenyl]-6-oxo-1,2,3,6-tetrahydropyridin-1-yl}-3,9-dimethyl-3,4,7,15-tetraazatricyclo [12.3.1.0^2,6]octadeca-1(18),2(6),4,14,16-pentaen-8-one]
[1]
  Ki: 6 nM
[2]
  Ki: 0.12 nM

## C[C@H]1C(=O)Nc2cnn(C)c2-c2ccnc(c2)[C@@H](n2ccc(-c3c(C(F)(F)F)ccc(Cl)c3F)cc2=O)CCC1F (stereo partly drawn) [Example 28, (9S,13S)-13-{4-[3-chloro-2-fluoro-6-(trifluoromethyl)phenyl]-2-oxo-1,2-dihydropyridin-1-yl}-10-fluoro-3,9-dimethyl-3,4,7,15-tetraazatricyclo[12.3.1.0^2,6]octadeca-1(18),2(6),4,14,16-pentaen-8-one trifluoroacetate]
[1]
  Ki: 25 nM
[2]
  Ki: 3 nM

## C[C@@H]1CCC[C@H](N2CCC(c3c(F)ccc(Cl)c3F)=CC2=O)c2cc(ccn2)-c2c(cnn2C(F)F)NC1=O [Example 22, (9R,13S)-13-[4-(3-chloro-2,6-difluorophenyl)-6-oxo-1,2,3,6-tetrahydropyridin-1-yl]-3-(difluoromethyl)-9-methyl-3,4,7,15-tetraazatricyclo [12.3.1.0^2,6]octadeca-1(18),2(6),4,14,16-pentaen-8-one]
[1]
  Ki: 50 nM
[2]
  Ki: 8 nM

## C[C@@H]1CCC[C@H](N2CCC(c3cc(Cl)ccc3-n3ccnn3)=CC2=O)c2cc(ccn2)-c2c(cnn2C)NC1=O [Example 1, (9R,13S)-13-{4-[5-chloro-2-(1H-1,2,3-triazol-1-yl)phenyl]-6-oxo-1,2,3,6-tetrahydropyridin-1-yl}-3,9-dimethyl-3,4,7,15-tetraazatricyclo[12.3.1.0^2,6]octadeca-1(18),2(6),4,14,16-pentaen-8-one trifluoroacetate]
[1]
  Ki: 24 nM
[2]
  Ki: 1.8 nM

## C[C@@H]1CCC[C@H](N2CCC(c3c(C(F)F)ccc(Cl)c3F)=CC2=O)c2cc(ccn2)-c2c(cnn2C)NC1=O [Example 26, (9R,13S)-13-{4-[3-chloro-6-(difluoromethyl)-2-fluorophenyl]-6-oxo-1,2,3,6-tetrahydropyridin-1-yl}-3,9-dimethyl-3,4,7,15-tetraazatricyclo [12.3.1.0^2,6]octadeca-1(18),2(6),4,14,16-pentaen-8-one]
[1]
  Ki: 5 nM
[2]
  Ki: 0.48 nM

## C[C@@H]1CCC[C@H](N2CCC(c3cc(Cl)ccc3-n3cc(Cl)nn3)=CC2=O)c2cc(ccn2)-c2[nH]ncc2NC1=O [Example 58, (9R,13S)-13-{4-[5-chloro-2-(4-chloro-1H-1,2,3-triazol-1-yl)phenyl]-6-oxo-1,2,3,6-tetrahydropyridin-1-yl}-9-methyl-3,4,7,15-tetraazatricyclo[12.3.1.0^2,6]octadeca-1(18),2(6),4,14,16-pentaen-8-one]
[1]
  Ki: 46 nM
[2]
  Ki: 2.4 nM

## C[C@@H]1CCC[C@H](N2CCC(c3c(F)ccc(Cl)c3F)=CC2=O)c2cc(ccn2)-c2c(cnn2C)NC1=O [Example 2, (9R,13S)-13-[4-(3-chloro-2,6-difluorophenyl)-6-oxo-1,2,3,6-tetrahydropyridin-1-yl]-3,9-dimethyl-3,4,7,15-tetraazatricyclo[12.3.1.0^2,6]octadeca-1(18),2(6),4,14,16-pentaen-8-one]
[1]
  Ki: 30 nM
[2]
  Ki: 10 nM

## C[C@@H]1CCC[C@H](N2CCC(c3c(Cl)ccc(Cl)c3F)=CC2=O)c2cc(ccn2)-c2c(cnn2C)NC1=O [Example 24, (9R,13S)-13-[4-(3,6-dichloro-2-fluorophenyl)-6-oxo-1,2,3,6-tetrahydropyridin-1-yl]-3,9-dimethyl-3,4,7,15-tetraazatricyclo[12.3.1.0^2,6]octadeca-1(18),2(6),4,14,16-pentaen-8-one]
[1]
  Ki: 6 nM
[2]
  Ki: 2.7 nM

## CCn1ncc2c1-c1ccnc(c1)[C@@H](N1CCC(c3c(F)ccc(Cl)c3F)=CC1=O)CCC[C@@H](C)C(=O)N2 [Example 45, (9R,13S)-13-[4-(3-chloro-2,6-difluorophenyl)-6-oxo-1,2,3,6-tetrahydropyridin-1-yl]-3-ethyl-9-methyl-3,4,7,15-tetraazatricyclo[12.3.1.0^2,6]octadeca-1(18),2(6),4,14,16-pentaen-8-one]
[1]
  Ki: 54 nM
[2]
  Ki: 13 nM

## C[C@@H]1CCC[C@H](N2CCC(c3cc(Cl)ccc3C#N)=CC2=O)c2cc(ccn2)-c2c(cnn2C(F)F)NC1=O [Example 19, 4-chloro-2-{1-[(9R,13S)-3-(difluoromethyl)-9-methyl-8-oxo-3,4,7,15-tetraazatricyclo[12.3.1.0^2,6]octadeca-1(18),2(6),4,14,16-pentaen-13-yl]-6-oxo-1,2,3,6-tetrahydropyridin-4-yl}benzonitrile]
[1]
  Ki: 10 nM
[2]
  Ki: 1.4 nM

## C[C@@H]1CCC[C@H](N2CCC(c3cc(Cl)ccc3-n3cc(Cl)nn3)=CC2=O)c2cccc(n2)-c2c(cnn2C)NC1=O [Example 43, (9R,13S)-13-{4-[5-chloro-2-(4-chloro-1H-1,2,3-triazol-1-yl)phenyl]-6-oxo-1,2,3,6-tetrahydropyridin-1-yl}-3,9-dimethyl-3,4,7,18-tetraazatricyclo[12.3.1.0^2,6]octadeca-1(18),2(6),4,14,16-pentaen-8-one]
[1]
  Ki: 110 nM
[2]
  Ki: 4.1 nM

## [2H]C([2H])([2H])n1ncc2c1-c1cccc(c1)[C@@H](N1CCC(c3cc(Cl)ccc3-n3cc(Cl)nn3)=CC1=O)CCC[C@@H](C)C(=O)N2 [Example 51, (9R,13S)-13-{4-[5-chloro-2-(4-chloro-1H-1,2,3-triazol-1-yl)phenyl]-6-oxo-1,2,3,6-tetrahydropyridin-1-yl}-3-(^2H3)methyl-9-methyl-3,4,7-triazatricyclo[12.3.1.0^2,6]octadeca-1(18),2(6),4,14,16-pentaen-8-one]
[1]
  Ki: 5 nM
[2]
  Ki: 0.18 nM
